From patent publication US8293231B2, “Methods and compositions for treating ischemia” (Blue Blood Biotech Corp., priority 2005, dated 2012) come the findings set out here.

Assay [1] has as its system HUVECs. As to the kind of experiment: In vitro Matrigel angiogenesis assay (tube formation). The class given is cell-based, human. On the procedure: (§1) Growth-factor-reduced Matrigel (BD Biosciences) was thawed at 4° C. A total of 200 μL Matrigel was added to wells of a 48-well plate and polymerized 30 min at 37° C. Two hundred μL cell suspension containing various concentrations of VEGF, TMD23, or TMD23 in the presence of polyclonal rabbit anti-TMD23 antibody (10 μg/mL) or various signaling pathway inhibitors were plated onto Matrigel-coated wells at a density of 2.4×10^4 cells/well in M199 containing 10% FBS for 24 h at 37° C. in a 5% CO2 humidified atmosphere. Each concentration was tested in triplicate in the same plate, with wells photographed using a Leica camera (40× magnification). Tube length was quantified by measuring tubes in five randomly chosen fields from each well using MetaMorph software. Experiments were repeated at least three times.
as §1, with “5° k” for “5%”

The subject of assay [2] is Matrigel plugs in FVB mice. As to the kind of experiment: Murine angiogenesis assay (Matrigel plug). In kind it is in vivo. On the procedure: To assess angiogenic effects in vivo, growth-factor-reduced liquid Matrigel (0.5 mL) containing heparin (60 U/mL) and various concentrations of TMD23, bFGF or VEGF was subcutaneously injected into FVB mice near the abdominal midline. Matrigel with PBS plus heparin served as the negative control, with bFGF and VEGF plus heparin as the positive control. Four days after injection, mice were sacrificed and Matrigel plugs were surgically removed. For macroscopic analysis of angiogenesis, hemoglobin content in Matrigel was measured using Drabkin reagent 525 (Sigma-Aldrich). For histological analysis, rat anti-mouse CD31 (PECAM-1, platelet endothelial cell adhesion molecule-1) antibody (Pharmingen) was used. The same specimens were used for hematoxylin and eosin (H&E) staining.

Assay [3] deals with human melanoma A2058 cells in Matrigel. The experiment in a line: Effect of TMD23 on tumor neoangiogenesis. The class given is in vivo, athymic nude mice. The protocol: To assess TMD23 effects on tumor neoangiogenesis, 1×10^6 human melanoma A2058 cells (ATCC® CRL-11147) were mixed with Matrigel (0.5 mL) containing heparin (60 U/mL) and various concentrations of TMD23 and subcutaneously injected into athymic nude mice. Matrigel plugs were harvested after 18 days and frozen in liquid nitrogen. Blood vessels were detected by immunohistochemistry using anti-CD31 antibody as described above. Microvessel density (MVD) was calculated by counting six highly vascularized fields in each section (200× magnification; MetaMorph software).

Regarding “TMD23: Recombinant human thrombomodulin fragment, amino acids Ala242-Ser515 of SEQ ID NO: 2: six EGF-like structures (D2) plus Ser/Thr-rich domain D3”, the “HUVEC tube formation on Matrigel” value in assay [1] (24 h, VEGF 10 ng/mL, TMD23 5 to 250 ng/mL) is listed as “formed elongated capillary-like structures, with complete networks”. The “Tubule length per well” value in assay [1] (FIG. 5G) is reported as “stimulated tube formation in dose-dependent manner”. In assay [2] (Matrigel plug assay), the “Induction of in vivo angiogenesis compared with TMD2” value is on record as “more effective than TMD2”. Moreover, in assay [2] (TMD23 and heparin), the “Histology of Matrigel plugs (H&E, anti-mouse CD31)” value is “Capillary-like structures were found”. The “Vascularization of Matrigel plugs” value in assay [2] (all TMD23 concentrations, plus heparin) is on record as “Intense vascularization”. Also, in assay [2] (day 4, plus heparin (30 U), TMD23 10, 100, or 1,000 ng, bFGF 250 ng, VEGF 50 ng), the “Appearance of Matrigel plugs, with heparin” value is recorded as “bright red”. The “Magnitude of angiogenic reaction with heparin versus without” value in assay [2] (gels supplemented with both angiogenic factor and heparin) is recorded as “considerably greater”. In addition, the “Hemoglobin content of recovered Matrigel plugs” value in assay [2] (plus heparin, compared with controls) is on record as “significantly increased”. In assay [3] (18 days), the “Blood vessels in Matrigel plugs (CD31 staining)” value is reported as “significantly more blood vessels”. Further, the “Weight of tumor contained in a Matrigel plug” value in assay [3] (FIG. 8A) was “increased the weight of tumor”. The “Microvessel density (MVD)” value in assay [3] (FIG. 8C) was “increased microvessel density”. Further, the “Tumor size developed by Matrigel plugs containing A2058 cells” value in assay [3] (compared with A2058 cells alone, 18 days) is “bigger”.
